In publication PMC7217150, “Synthesis, Modification, and Biological Evaluation of a Library of Novel Water‐Soluble Thiopyridone‐Based Organometallic Complexes and Their Unexpected (Biological) Behavior” (Chemistry (Weinheim an Der Bergstrasse, Germany), 2020):

Legend:
Type in all cases: cell-based, human
SW480 [1] = experiment: Cell cycle distribution, flow cytometry with propidium iodide; conditions: for Cell cycle distribution G1, % / Cell cycle distribution G2/M, % / Cell cycle distribution S, %: 24 h, mean ± SD; for Relative change in cell cycle distribution G1, % / Relative change in cell cycle distribution G2/M, % / Relative change in cell cycle distribution S, %: difference to untreated control
Protocol: (§1) The influence of two ligands, as well as seven complexes on cell cycle distribution was tested in two of the cancer cell lines (SW480, CH1/PA‐1) by means of flow cytometry. The cell cycle distribution (G1, S, G2/M phase in %; Table S37) was investigated upon DNA staining with propidium iodide.
(§2) CH1/PA‐1 and SW480 cells were harvested by trypsinization, 8×10^4 and 1.2×10^5 cells per well were seeded into 12‐well plates, respectively. The cells were allowed to attach and resume proliferation for 24 h after the seeding. […] After continuous exposure for 24 h at 37 °C and under 5 % CO2, the cells were harvested by trypsinization and centrifuged at 300 g for 3 min. The cells were washed with PBS (1 mL) and resuspended in propidium iodine (PI) containing HSF buffer (600 μL; 0.1 % Triton X‐100, 0.1 % sodium citrate, 50 μg mL^−1 PI in PBS). After incubation overnight at 4 °C in the dark, 5×10^3 cells were measured by flow cytometry with a Millipore Guava easyCyte 8HT instrument (Luminex, USA). Data were evaluated by means of FlowJo software (Tree Star) using Watson Pragmatic algorithms.60 The fitting of the curve was chosen to keep the root mean square error between 1.0 and 2.0, alongside with good fitting visual model.

CH1/PA‐1 [2] = experiment: as above; conditions: for Cell cycle distribution G1, % / Cell cycle distribution S, % / Cell cycle distribution G2/M, %: 24 h, mean ± SD; for Relative change in cell cycle distribution G1, % / Relative change in cell cycle distribution G2/M, % / Relative change in cell cycle distribution S, %: difference to untreated control
Protocol: as §1, §2

SW480 [3] = experiment: MTT cytotoxicity assay, monolayer culture; conditions: SW480, MTT assay, exposure time 96 h, means ± SDs
Text: (§3) A549 (non‐small cell lung carcinoma), SW480 and HCT‐116 (both colon carcinoma) were kindly provided by Brigitte Marian, Institute of Cancer Research, Department of Medicine I, Medical University of Vienna, Austria. The cell line CH1/PA‐1 (ovarian teratocarcinoma) was kindly provided by Lloyd R. Kelland (CRC Centre for Cancer Therapeutics, Institute of Cancer Research, Sutton, UK). All cell culture media (including supplements) and reagents were obtained from Sigma–Aldrich, and all plasticware from StarLab, unless indicated otherwise.

CH1/PA‐1 [4] = experiment: MTT cytotoxicity assay, monolayer culture; conditions: CH1/PA‐1, MTT assay, exposure time 96 h, means ± SDs
Text: as §3

A549 = experiment: MTT cytotoxicity assay, monolayer culture; conditions: exposure time 96 h, means ± SDs
Text: as §3

Compound | Cell cycle distribution G1, % (SW480 [1]; SW480, 5 µM) [%] | Cell cycle distribution G2/M, % (SW480 [1]; SW480, 5 µM) [%] | Cell cycle distribution S, % (SW480 [1]; SW480, 5 µM) [%] | Relative change in cell cycle distribution G1, % (SW480 [1]; SW480, 5 µM) [%] | Relative change in cell cycle distribution G2/M, % (SW480 [1]; SW480, 5 µM) [%] | Relative change in cell cycle distribution S, % (SW480 [1]; SW480, 5 µM) [%] | Cell cycle distribution G1, % (SW480 [1]; SW480, 10 µM) [%] | Cell cycle distribution G2/M, % (SW480 [1]; SW480, 10 µM) [%] | Cell cycle distribution S, % (SW480 [1]; SW480, 10 µM) [%] | Relative change in cell cycle distribution G1, % (SW480 [1]; SW480, 10 µM) [%] | Relative change in cell cycle distribution G2/M, % (SW480 [1]; SW480, 10 µM) [%] | Relative change in cell cycle distribution S, % (SW480 [1]; SW480, 10 µM) [%] | Cell cycle distribution G1, % (CH1/PA‐1 [2]; CH1/PA-1, 5 µM) [%] | Cell cycle distribution G2/M, % (CH1/PA‐1 [2]; CH1/PA-1, 5 µM) [%] | Cell cycle distribution S, % (CH1/PA‐1 [2]; CH1/PA-1, 5 µM) [%] | Relative change in cell cycle distribution G1, % (CH1/PA‐1 [2]; CH1/PA-1, 5 µM) [%] | Relative change in cell cycle distribution G2/M, % (CH1/PA‐1 [2]; CH1/PA-1, 5 µM) [%] | Relative change in cell cycle distribution S, % (CH1/PA‐1 [2]; CH1/PA-1, 5 µM) [%] | Cell cycle distribution G1, % (CH1/PA‐1 [2]; CH1/PA-1, 10 µM) [%] | Cell cycle distribution G2/M, % (CH1/PA‐1 [2]; CH1/PA-1, 10 µM) [%] | further results
Chlorido[1‐phenyl‐2‐methyl‐3‐oxo‐κO‐pyridine‐4(1H)‐thionato‐κS](η^5‐1,2,3,4,5‐pentamethylcyclopentadienyl)rhodium(III) [Compound 5 b] | 26 ± 13 | 27 ± 9 | 48 ± 7 | -22 | 8 | 15 | 34 ± 10 | 17 ± 6 | 49 ± 8 | -14 | -2 | 16 | 22 ± 6 | 41 ± 4 | 37 ± 5 | -18 | 17 | 1 | 19 ± 7 | 39 ± 5 | Cell cycle distribution G1, % (SW480 [1]; SW480, 2.5 µM): 37 ± 17%; Cell cycle distribution G2/M, % (SW480 [1]; SW480, 2.5 µM): 23 ± 7%; Cell cycle distribution S, % (SW480 [1]; SW480, 2.5 µM): 40 ± 11%; Relative change in cell cycle distribution G1, % (SW480 [1]; SW480, 2.5 µM): -11%; Relative change in cell cycle distribution G2/M, % (SW480 [1]; SW480, 2.5 µM): 4%; Relative change in cell cycle distribution S, % (SW480 [1]; SW480, 2.5 µM): 7%; G1 phase decrease (SW480 [1]; SW480 cells, 5 μM): more than 20%; Cell cycle distribution G1, % (CH1/PA‐1 [2]; CH1/PA-1, 2.5 µM): 22 ± 2%; Cell cycle distribution S, % (CH1/PA‐1 [2]; CH1/PA-1, 2.5 µM): 43 ± 9%; Relative change in cell cycle distribution G1, % (CH1/PA‐1 [2]; CH1/PA-1, 2.5 µM): -18%; Relative change in cell cycle distribution G2/M, % (CH1/PA‐1 [2]; CH1/PA-1, 2.5 µM): 11%; Relative change in cell cycle distribution S, % (CH1/PA‐1 [2]; CH1/PA-1, 2.5 µM): 7%; Cell cycle distribution S, % (CH1/PA‐1 [2]; CH1/PA-1, 10 µM): 42 ± 1%; Relative change in cell cycle distribution G1, % (CH1/PA‐1 [2]; CH1/PA-1, 10 µM): -21%; Relative change in cell cycle distribution G2/M, % (CH1/PA‐1 [2]; CH1/PA-1, 10 µM): 15%; Relative change in cell cycle distribution S, % (CH1/PA‐1 [2]; CH1/PA-1, 10 µM): 6%; decrease in G1 phase (CH1/PA‐1 [2]; CH1/PA‐1 cells, 10 μM): more than 20%; IC50 (SW480 [3]): 0.67 ± 0.04 µM; IC50 (CH1/PA‐1 [4]): 0.66 ± 0.08 µM; IC50 (A549): 2 ± 0.8 µM
Cc1c(O)c(=S)ccn1C [Compound 2 a, 3‐hydroxy‐1,2‐dimethylpyridine‐4(1H)‐thione] | 45 ± 1 | 23 ± 0 | 32 ± 2 | -3 | 4 | -1 | 41 ± 1 | 24 ± 1 | 35 ± 2 | -7 | 5 | 2 | 33 ± 4 | 27 ± 5 | 40 ± 3 | -7 | 3 | 4 | 33 ± 4 | 26 ± 6 | Cell cycle distribution G1, % (SW480 [1]; SW480, 20 µM): 44 ± 3%; Cell cycle distribution G2/M, % (SW480 [1]; SW480, 20 µM): 22 ± 2%; Cell cycle distribution S, % (SW480 [1]; SW480, 20 µM): 33 ± 2%; Relative change in cell cycle distribution G1, % (SW480 [1]; SW480, 20 µM): -4%; Relative change in cell cycle distribution G2/M, % (SW480 [1]; SW480, 20 µM): 3%; Relative change in cell cycle distribution S, % (SW480 [1]; SW480, 20 µM): 0%; Cell cycle distribution S, % (CH1/PA‐1 [2]; CH1/PA-1, 10 µM): 41 ± 8%; Relative change in cell cycle distribution G1, % (CH1/PA‐1 [2]; CH1/PA-1, 10 µM): -7%; Relative change in cell cycle distribution G2/M, % (CH1/PA‐1 [2]; CH1/PA-1, 10 µM): 2%; Relative change in cell cycle distribution S, % (CH1/PA‐1 [2]; CH1/PA-1, 10 µM): 5%; Cell cycle distribution G1, % (CH1/PA‐1 [2]; CH1/PA-1, 20 µM): 35 ± 3%; Cell cycle distribution G2/M, % (CH1/PA‐1 [2]; CH1/PA-1, 20 µM): 28 ± 4%; Cell cycle distribution S, % (CH1/PA‐1 [2]; CH1/PA-1, 20 µM): 37 ± 9%; Relative change in cell cycle distribution G1, % (CH1/PA‐1 [2]; CH1/PA-1, 20 µM): -5%; Relative change in cell cycle distribution G2/M, % (CH1/PA‐1 [2]; CH1/PA-1, 20 µM): 4%; Relative change in cell cycle distribution S, % (CH1/PA‐1 [2]; CH1/PA-1, 20 µM): 1%; IC50 (SW480 [3]; Homo sapiens): 3.2 ± 0.3 µM; IC50 (CH1/PA‐1 [4]; Homo sapiens): 15 ± 1 µM; IC50 (A549; Homo sapiens): 66 ± 6 µM
